Measurements taken from patent publication US4788063A, “Drug delivery system” (priority 1984, dated 1988).

How the values were obtained:
[1] = test system: Whole blood cholinesterase; experiment: whole blood cholinesterase after dermal application or intramuscular injection in pigs; type: in vivo; settings: intramuscular injection, pigs (FIG. 1)
Method: (§1) Laboratory animal species used throughout this study consisted of albino guinea pigs of either sex of a local strain, (Dunkin-Hadley origin), weighing between 300-400 g, and female pigs of the large White and Lundrace strain, 8-12 weeks of age, weighing 8-14 kg.
(§2) At 30 minutes prior to dermal application of test solutions, the hair at the test sites was closely clipped. Only animals in which the skin at the test sites appeared grossly normal and was free of bites, scratches or bruises, were selected for the study.
(§3) Treatment solutions for dermal application were freshly prepared and applied to a pre-determined area of a commercially available pad, (micropad dressing 3M No. 1610, U.S. Pat. No. 3,285,245) which in turn was secured to dorsal test-sites by an adhesive bandage, serving at the same time as an occlusive dressing. […] Intervals between bleedings were 2 hours in guinea pigs, and 30 minutes in pigs.
(§4) Cholinesterase Determinations: Whole blood cholinesterase activity was determined by the method of Ellman [G.L. Ellman et al, Biochem. Pharmacol. 7, 83 (1961)], or by that described by Johnson and Russell [C.D. Johnson and R. L. Russell, Anal Biochem 64, 229 (1975)]. Data obtained in experimental animals (guinea pigs and pigs) show a remarkable prolonging of the duration of action of the dermally applied drug when compared with systemic administration.

[2] = test system: Whole blood cholinesterase; experiment: whole blood cholinesterase after dermal application or injection in guinea pigs; type: in vivo; settings: injection, guinea pigs (FIG. 2)
Method: as §1, §2, §3, §4

memory disorders = settings: SDAT patients, intravenous infusion at a rate of 3.4-14 μg/kg. hr; cited from earlier work

CNC(=O)Oc1ccc2c(c1)[C@]1(C)CCN(C)[C@@H]1N2C [physostigmine]
duration of the effect [1]: 2 to 3 h | duration of the effect [2]: 2 to 3 h | effect on memory disorders (memory disorders): improvement in memory disorders
